Patent US20040077689A1, “Abc expression promoters” (priority 2001, published 2004)
Counter-ions that a name gives are not always drawn.

Experiments:
Assay type in all cases: cell-based
ACAT-1 mRNA = experiment: Expression modulatory activity for ACAT-1 mRNA in human monocyte-derived cells; conditions: THP-1 cells, test compound 1 μM, 2 days + 1 day; Not added = 100.0; Mean ± SEM (n = 3)
Experimental: (§1) In a RPMI medium containing a test compound (1 μM), PMA (phorbol 12-myristate 13-acetate, 400 ng/mL)-FBS (fetal bovine serum, 10%) was suspended human monocyte-derived THP-1 cells (purchased from Dainippon Pharmaceutical Co., Ltd.) (7.2×10^5 cell/mL). The obtained suspension was dispensed into a 24 well plate (0.5 mL/well) and cultured for 2 days (3.6×10^5 cells). After the medium was removed, a RPMI medium containing the test compound (1 μM), PMA(400 ng/mL)-FBS(10%) was added to the plate and it was cultured further for 1 day.
(§2) After the medium was removed, whole RNA was extracted from the obtained cells using RN easy Mini Kit (QIAGEN), and the expression amounts of ACAT-1 mRNA, CEH mRNA and human acidic ribosomal protein (huPO; 36B4) mRNA as an internal standard were measured by real-time quantitative RT-PCR according to TaqMan PCR method using a TaqMan EZ RT-PCR kit (Applied Biosystems).
In the above mentioned method, for the measurement of the expression amount of the ACAT-1mRNA, oligo DNAs represented by
5′-[…]-3′ (SEQ ID NO: 19),
5′-[…]-3′ (SEQ ID NO: 20) and […]
(§3) The expression amount of human acidic ribosomal protein (huPO; 36B4) mRNA was measured according to the method similar to Experimental Example 1. Real-time quantitative RT-PCR was carried out similarly to Experimental Example 1. […]

ABCG1 mRNA [1] = experiment: Expression modulatory activity for ABCG1 mRNA in mouse macrophages; conditions: C57BL6/J mouse peritoneal macrophages, test compound 1 μM, 24 hours; Not added = 100.0; Mean ± SEM (n = 3)
Experimental: (§4) A C57BL6/J mouse (male, 10 weeks old) was intraperitoneally administered with 1 mL of a 5% thioglycolic acid medium (Wako Pure Chemical Industries, Ltd.). After 4 days, intraperitoneal cells were collected with phosphate-buffered saline (PBS), and macrophages were separated in a 3% BSA-containing DMEM medium as cells adhesive to a plate. After incubation of the macrophages overnight in a DMEM medium containing 10% human lipoprotein-removed serum, the medium was replaced with a DMEM medium containing a test compound (1 μM) and 10% fetal bovine serum and cultured for 24 hours.
(§5) After the medium was removed, whole RNA was extracted from the obtained macrophage using RNeasy Mini Kit (QIAGEN) and then the expression amounts of the LXRαmRNA, ABCG1mRNA and mouse acidic ribosomal protein (36B4) mRNA as an internal standard were measured by real-time quantitative RT-PCR according to TaqMan PCR method using a TaqMan EZ RT-PCR kit (Applied Biosystems). […]
(§6) Real-time quantitative PCR was carried out according to the similar manner to Experimental Example 1.
(§7) Based on the ratio of the expression amount of the LXRαmRNA and ABCG1mRNA relative to the internal standard (expression amount of mouse acidic ribosomal protein mRNA), the expression modulatory activities for the LXRα mRNA and ABCG1 mRNA of the test compound were evaluated.

ABCA1 mRNA = experiment: Expression modulatory activity for ABCA1 mRNA in human monocyte-derived cells; conditions: THP-1 cells, test compound 1 μM, 24 hours; Not added = 100.0; Mean ± SEM (n = 3)
Experimental: (§8) To a PMA (phorbol 12-myristate 13-acetate, 400 ng/mL)-FBS (fetal bovine serum, 10%)-containing RPMI medium was suspended human monocyte -derived THP-1 cells (ATCC) (7×10^5 cell/mL), and the obtained suspension was dispensed into a 24-well plate (0.5 mL/well) and cultured for 3 days. After removing the medium, a FBS (fetal bovine serum, 10%)—containing RPMI1640 medium into which a test compound (1 μM) had been added was added to the 24-well plate and the plate was cultured for 24 hours. Whole RNA was extracted from the cultured cells using RNeasy Mini Kit (QIAGEN), and then the expression amounts of LXRα mRNA, ABCA1 mRNA, ABCG1 mRNA and Human acidic ribosomal protein (huPO; 36B4) mRNA as an internal standard were measured by real-time quantitative RT-PCR according to TaqMan PCR method using a TaqMan EZ RT-PCR kit (Applied Biosystems). […]
(§9) The expression amount of Human acidic ribosomal protein (huPO; 36B4) mRNA was measured using Pre-Developed TaqMan Assay Reagents Endogenous Control (Human Acidic ribosomal protein (huPO)) (Applied Biosystems), and VIC was used as a reporter dye and TAMRA was used as a quencher dye. […]

CEH mRNA = experiment: Expression modulatory activity for CEH mRNA in human monocyte-derived cells; conditions: THP-1 cells, test compound 1 μM, 2 days + 1 day; Not added = 100.0; Mean ± SEM (n = 3)
Experimental: as §1, §2
Furthermore, for the measurement of the expression amount of the CEH mRNA, oligo DNAs represented by
5′-AGCCCTTGGCTGAGCAAA-3′ (SEQ ID NO: 22),
5′-GTCGCAGGCAGTGAACCAT-3′ (SEQ ID NO: 23) and
5′-[…]-3′ (SEQ ID NO: 24) […]
as §3

[2] = tested on: human monocyte-derived THP-1 cells; experiment: Foaming-suppressant activity in human monocyte-derived cells (intracellular lipid content); conditions: for Intracellular lipid content FC (free cholesterol) / Intracellular lipid content TC (total cholesterol) / Intracellular lipid content CE (cholesteryl ester): test compound 1 μM, rabbit β-VLDL loading 2 days; for Intracellular lipid content FC (free cholesterol): Not added = 80.8 ± 1.2, Mean ± SEM (n = 3); for Intracellular lipid content TC (total cholesterol): Not added = 114.8 ± 1.8, Mean ± SEM (n = 3); for Intracellular lipid content CE (cholesteryl ester): calculated as TC minus FC, Not added = 34.0 ± 2.3, Mean ± SEM (n = 3)
Experimental: In a RPMI1640 medium containing a test compound (1 μM), PMA (phorbol 12-myristate 13-acetate, 400 ng/ml) and 10% fetal bovine serum was suspended human monocyte-derived THP-1 cells (purchased from Dainippon Pharmaceutical Co., Ltd.). The obtained suspension was dispensed into a 12-well plate (7.2×10^5 cells) and was cultured for 3 days. The obtained cell was further cultured in a RPMI1640 medium containing the test compound and 0.2 mM oleic acid-0.2% bovine serum albumin complex and rabbit β-VLDL (200 μg cholesterol/mL) for 2 days, and then the total lipids in the cells were extracted with a mixed solution of n-hexane/isopropanol (3:2). The amounts of the total cholesterol (TC) and free cholesterol (FC) in the extract were measured with a enzyme method [using Cholesterol E-Test Wako (trade name, Wako Pure Chemical Industries, Ltd.)], and the amount of cholesteryl ester (CE) was calculated by the difference between the two cholesterol amounts. The intracellular lipid content was then evaluated by dividing the amounts of these lipids by the amount of cell protein (measured using BCA assay kit (Pierce)). In the Table, TC represents total cholesterol, FC represents free cholesterol and CE represents cholesteryl ester.

LXRα mRNA [3] = experiment: Expression modulatory activity for LXRα mRNA in human monocyte-derived cells; conditions: THP-1 cells, test compound 1 μM, 24 hours; Not added = 100.0; Mean ± SEM (n = 3)
Experimental: as §8, §9

LXRα mRNA [4] = experiment: Expression modulatory activity for LXRα mRNA in mouse macrophages; conditions: C57BL6/J mouse peritoneal macrophages, test compound 1 μM, 24 hours; Not added = 100.0; Mean ± SEM (n = 3)
Experimental: as §4, §5, §6, §7

ABCG1 mRNA [5] = experiment: Expression modulatory activity for ABCG1 mRNA in human monocyte-derived cells; conditions: THP-1 cells, test compound 1 μM, 24 hours; Not added = 100.0; Mean ± SEM (n = 3)
Experimental: as §8, §9

| Compound | Expression amount of mRNA (Relative ratio % to internal standard) ACAT-1 (ACAT-1 mRNA) | Expression amount of mRNA (Relative ratio % to internal standard) ABCG1 (ABCG1 mRNA [1]) | Expression amount of mRNA (Relative ratio % to internal standard) ABCA1 (ABCA1 mRNA) | Expression amount of mRNA (Relative ratio % to internal standard) CEH (CEH mRNA) | foaming-suppressant activity ([2]; conclusion based on the decrease in the amount of cholesteryl ester, 1 μM) | Intracellular lipid content FC (free cholesterol) [2] | Intracellular lipid content TC (total cholesterol) [2] | Intracellular lipid content CE (cholesteryl ester) [2] | Expression amount of mRNA (Relative ratio % to internal standard) LXRα (LXRα mRNA [3]) | Expression amount of mRNA (Relative ratio % to internal standard) LXRα (LXRα mRNA [4]) | Expression amount of mRNA (Relative ratio % to internal standard) ABCG1 (ABCG1 mRNA [5]) |
| --- | --- | --- | --- | --- | --- | --- | --- | --- | --- | --- | --- |
| Cc1oc(-c2ccccc2)nc1COc1ccc(CO/N=C(\CCC(=O)O)c2ccccc2)cc1 [Compound (7), E-4-[4-(5-methyl-2-phenyl-4-oxazolylmethoxy)benzyloxyimino]-4-phenylbutyric acid] | 66.1 ± 1.5% | 159.1 ± 6.1% | 113.5 ± 5.5% | 159.4 ± 1.9% | have foaming-suppressant activity | 72.0 ± 1.3 μg/mg cell protein | 95.8 ± 1.4 μg/mg cell protein | 23.7 ± 1.9 μg/mg cell protein | 160.1 ± 9.0% | 173.0 ± 9.9% | 265.5 ± 22.0% |
| CCc1ccc(CCOc2ccc(CC3SC(=O)NC3=O)cc2)nc1 (stereo not drawn) [Pioglitazone hydrochloride, reference compound] | 65.8 ± 1.9% | 195.2 ± 23.1% | 108.2 ± 3.5% | 148.6 ± 9.2% |  | 72.7 ± 0.4 μg/mg cell protein | 100.3 ± 0.3 μg/mg cell protein | 27.6 ± 0.5 μg/mg cell protein | 165.7 ± 4.6% | 145.3 ± 17.9% | 252.0 ± 9.2% |
